Assay results: ChEMBL document CHEMBL5380848, “Novel Benzo Five-Membered Heterocycle Derivatives as P-Glycoprotein Inhibitors: Design, Synthesis, Molecular Docking, and Anti-Multidrug Resistance Activity” (J Med Chem, 2023)
Calls of active or inactive are those of the source. No cut-off for these calls is given here.

Tests used:
[1] = molecular target: T1, ATP-dependent translocase ABCB1 (Homo sapiens, UniProt P08183); test: Inhibition of P-gp-mediated multidrug resistance in doxorubicin-resistant human MCF7/ADR cells assessed as fold reversal of resistance by measuring doxorubicin IC50 incubated for 48 hrs by CCK-8 assay relative to doxorubicin IC50 in absence of compound; format: cell-based; details: nci-adr-res
T1 sequence (P08183 whole entry): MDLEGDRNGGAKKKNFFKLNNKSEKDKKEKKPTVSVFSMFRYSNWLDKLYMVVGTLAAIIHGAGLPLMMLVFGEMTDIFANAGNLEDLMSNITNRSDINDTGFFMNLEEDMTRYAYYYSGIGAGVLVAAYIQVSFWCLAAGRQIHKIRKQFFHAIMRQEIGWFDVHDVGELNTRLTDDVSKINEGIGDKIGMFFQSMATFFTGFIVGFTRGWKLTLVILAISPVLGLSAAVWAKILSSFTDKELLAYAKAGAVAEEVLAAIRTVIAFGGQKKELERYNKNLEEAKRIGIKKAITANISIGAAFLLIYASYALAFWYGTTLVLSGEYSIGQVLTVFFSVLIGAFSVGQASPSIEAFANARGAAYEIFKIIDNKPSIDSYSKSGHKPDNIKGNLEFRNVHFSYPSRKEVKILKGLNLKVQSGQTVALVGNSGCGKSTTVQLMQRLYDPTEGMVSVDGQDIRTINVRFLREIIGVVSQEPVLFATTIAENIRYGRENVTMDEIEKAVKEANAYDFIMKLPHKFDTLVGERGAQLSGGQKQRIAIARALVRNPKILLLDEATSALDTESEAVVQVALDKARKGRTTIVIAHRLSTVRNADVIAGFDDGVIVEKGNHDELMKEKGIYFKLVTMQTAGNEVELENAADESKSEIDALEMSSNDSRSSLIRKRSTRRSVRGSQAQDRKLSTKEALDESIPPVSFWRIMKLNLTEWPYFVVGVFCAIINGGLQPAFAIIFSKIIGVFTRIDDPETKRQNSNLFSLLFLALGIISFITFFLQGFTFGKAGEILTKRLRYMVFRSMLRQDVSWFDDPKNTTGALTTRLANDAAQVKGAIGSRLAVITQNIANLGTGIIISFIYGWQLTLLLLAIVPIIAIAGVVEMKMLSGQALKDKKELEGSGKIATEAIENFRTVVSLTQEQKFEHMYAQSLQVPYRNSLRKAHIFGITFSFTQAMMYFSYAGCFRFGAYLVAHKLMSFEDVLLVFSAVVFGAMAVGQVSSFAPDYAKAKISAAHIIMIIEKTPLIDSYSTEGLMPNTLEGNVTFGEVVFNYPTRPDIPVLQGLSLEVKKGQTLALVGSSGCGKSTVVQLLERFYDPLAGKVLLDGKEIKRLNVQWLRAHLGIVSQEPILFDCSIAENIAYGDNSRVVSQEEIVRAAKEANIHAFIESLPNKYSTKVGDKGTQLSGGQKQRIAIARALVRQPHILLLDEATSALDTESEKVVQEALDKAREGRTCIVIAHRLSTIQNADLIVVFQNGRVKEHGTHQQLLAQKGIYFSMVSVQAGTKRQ

MCF7 = test: Cytotoxicity against human MCF7 cells assessed as inhibition rate at 5 uM measured after […] hrs by CCK-8 assay relative to control; format: functional
NCI/ADR-RES [2] = test: Cytotoxicity against doxorubicin-resistant human MCF-7/ADR cells assessed as inhibition rate at 5 uM measured after […] hrs by CCK-8 assay relative to control; format: functional
[3] = molecular target: T1, ATP-dependent translocase ABCB1; test: Inhibition of P-glycoprotein mediated Rhodamine-123 efflux in doxorubicin-resistant human MCF-7/ADR cells assessed as fluorescence intensity of rhodamine-123 accumulation incubated for 30 mins by flow cytometry analysis; format: cell-based; details: nci-adr-res, 0.5 h, at 2.5 to 10 µM, dose 2.5-10 µM
NCI/ADR-RES [4] = test: Effect on P-glycoprotein expression in doxorubicin-resistant human MCF-7/ADR cells at 2.5 to 10 uM incubated for 48 hrs by Western blotting analysis; format: functional, cell-based; details: dose 2.5-10 µM
[5] = molecular target: T1, ATP-dependent translocase ABCB1; test: Binding affinity to P-glycoprotein in doxorubicin-resistant human MCF-7/ADR cells assessed as thermal stability measured 40 to 60 degC at 0.5 to 2.5 uM incubated for 30 mins by CETSA; format: cell-based; details: nci-adr-res, 0.5 h, dose 0.5-2.5 µM
NCI/ADR-RES [6] = test: Effect on ABCG2 gene expression in doxorubicin-resistant human MCF-7/ADR cells at 5 uM incubated for 12 hrs; format: functional, cell-based
NCI/ADR-RES [7] = test: Effect on ABCA2 gene expression in doxorubicin-resistant human MCF-7/ADR cells at 5 uM incubated for 12 hrs; format: functional, cell-based
NCI/ADR-RES [8] = test: Effect on ABCC1 gene expression in doxorubicin-resistant human MCF-7/ADR cells at 5 uM incubated for 12 hrs; format: functional, cell-based
NCI/ADR-RES [9] = test: Effect on ABCB6 gene expression in doxorubicin-resistant human MCF-7/ADR cells at 5 uM incubated for 12 hrs; format: functional, cell-based
NCI/ADR-RES [10] = test: Effect on ABCC4 gene expression in doxorubicin-resistant human MCF-7/ADR cells at 5 uM incubated for 12 hrs; format: functional, cell-based
NCI/ADR-RES [11] = test: Effect on ABCF2 gene expression in doxorubicin-resistant human MCF-7/ADR cells at 5 uM incubated for 12 hrs; format: functional, cell-based
NCI/ADR-RES [12] = test: Effect on ABCD4 gene expression in doxorubicin-resistant human MCF-7/ADR cells at 5 uM incubated for 12 hrs; format: functional, cell-based
NCI/ADR-RES [13] = test: In vivo resistance reversal activity in doxorubicin-resistant human MCF-7/ADR cells xenografted in BALB/c mouse model assessed as potentiation of doxorubicin antitumor effect by measuring reduction in tumor weight at 10 mg/kg for every 2 days once injected through abdominal cavity for 14 days; format: functional, organism-based; details: time 14.0 day
NCI/ADR-RES [14] = test: In vivo resistance reversal activity in doxorubicin-resistant human MCF-7/ADR cells xenografted in BALB/c mouse model assessed as potentiation of doxorubicin antitumor effect by measuring reduction in tumor volume at 10 mg/kg for every 2 days once injected through abdominal cavity for 14 days; format: functional, organism-based; details: time 14.0 day
NCI/ADR-RES [15] = test: In vivo resistance reversal activity in doxorubicin-resistant human MCF-7/ADR cells xenografted in BALB/c mouse model assessed as reduction in tumor weight at 10 mg/kg for every 2 days once injected through abdominal cavity for 14 days; format: functional, organism-based; details: time 14.0 day
NCI/ADR-RES [16] = test: In vivo resistance reversal activity in doxorubicin-resistant human MCF-7/ADR cells xenografted in BALB/c mouse model assessed as reduction in tumor volume at 10 mg/kg for every 2 days once injected through abdominal cavity for 14 days; format: functional, organism-based; details: time 14.0 day
[17] = Toxicity in BALB/c mouse xenografted with doxorubicin-resistant human MCF-7/ADR cells assessed as body weight change at 10 mg/kg for every 2 days once injected through abdominal cavity for 14 days; format: organism-based; details: in vivo, ip, 336 h, time 14 day
[18] = Toxicity in BALB/c mouse xenografted with doxorubicin-resistant human MCF-7/ADR cells assessed as heart morphological changes at 10 mg/kg for every 2 days once injected through abdominal cavity for 14 days by hematoxylin and eosin staining based analysis; format: organism-based; details: in vivo, ip, 336 h, time 14 day
[19] = Toxicity in BALB/c mouse xenografted with doxorubicin-resistant human MCF-7/ADR cells assessed as liver morphological changes at 10 mg/kg for every 2 days once injected through abdominal cavity for 14 days by hematoxylin and eosin staining based analysis; format: organism-based; details: in vivo, ip, 336 h, time 14 day
[20] = Toxicity in BALB/c mouse xenografted with doxorubicin-resistant human MCF-7/ADR cells assessed as spleen morphological changes at 10 mg/kg for every 2 days once injected through abdominal cavity for 14 days by hematoxylin and eosin staining based analysis; format: organism-based; details: in vivo, ip, 336 h, time 14 day
[21] = Toxicity in BALB/c mouse xenografted with doxorubicin-resistant human MCF-7/ADR cells assessed as lung morphological changes at 10 mg/kg for every 2 days once injected through abdominal cavity for 14 days by hematoxylin and eosin staining based analysis; format: organism-based; details: in vivo, ip, 336 h, time 14 day
[22] = Toxicity in BALB/c mouse xenografted with doxorubicin-resistant human MCF-7/ADR cells assessed as kidney morphological changes at 10 mg/kg for every 2 days once injected through abdominal cavity for 14 days by hematoxylin and eosin staining based analysis; format: organism-based; details: in vivo, ip, 336 h, time 14 day

fold change (FC) [1]	Structure (SMILES)	inhibition at 5 µM (MCF7)	inhibition at 5 µM (NCI/ADR-RES [2])	also measured
1021.3	COc1cc2c(cc1OC)CN(C(=O)c1cc3cc(-c4ccc(NC(=O)c5cccc(F)c5)cc4)ccc3[nH]1)CC2	31.5%	34.1%	–
241.9	COc1cc2c(cc1OC)CN(C(=O)c1cc3cc(-c4ccc(NC(=O)c5ccccc5Cl)cc4)ccc3[nH]1)CC2	12.7%	12.4%	–
96.6	COc1cc2c(cc1OC)CN(C(=O)c1cc3cc(-c4ccc(NC(=O)c5ccc(OC(C)(C)C)cc5)cc4)ccc3[nH]1)CC2	15.9%	8.8%	–
325.9	COc1cccc(C(=O)Nc2ccc(-c3ccc4[nH]c(C(=O)N5CCc6cc(OC)c(OC)cc6C5)cc4c3)cc2)c1	11.4%	18.9%	–
36.1	COc1cc2c(cc1OC)CN(C(=O)c1cc3cc(-c4ccc(NC(=O)c5ccc(Cl)cc5)cc4)ccc3n1Cc1ccccc1Br)CC2	18.2%	17.1%	–
93.6	COc1cc2c(cc1OC)CN(C(=O)c1cc3cc(-c4ccc(NC(=O)c5cc(OC)c(OC)c(OC)c5)cc4)ccc3[nH]1)CC2	14.1%	10.6%	–
3628.7	COc1cc2c(cc1OC)CN(C(=O)c1cc3cc(-c4ccc(NC(=O)c5ccc(F)cc5)cc4)ccc3[nH]1)CC2	52.8%	50.4%	–
41.5	COc1cc(Cn2c(C(=O)N3CCc4cc(OC)c(OC)cc4C3)cc3cc(-c4ccc(NC(=O)c5ccc(Cl)cc5)cc4)ccc32)cc(OC)c1	3%	11.2%	–
23	COc1cc2c(cc1OC)CN(C(=O)c1cc3cc(-c4ccc(NC(=O)c5ccc(Oc6ccccc6)cc5)cc4)ccc3[nH]1)CC2	19%	15.5%	–
29.2	COc1cc2c(cc1OC)CN(C(=O)c1cc3cc(-c4ccc(NC(=O)c5ccc(Cl)cc5)cc4)ccc3n1Cc1ccc(OC(F)(F)F)cc1)CC2	0.3%	2.8%	–
55.4	COc1cc2c(cc1OC)CN(C(=O)c1cc3cc(-c4ccc(NC(=O)c5ccc(Cl)cc5)cc4)ccc3n1Cc1ccccc1)CC2	10.1%	6.9%	–
469.8	COc1cc2c(cc1OC)CN(C(=O)c1cc3cc(-c4ccc(NC(=O)c5ccccc5F)cc4)ccc3[nH]1)CC2	13.9%	18.7%	–
31.1	COc1cc2c(cc1OC)CN(C(=O)c1cc3cc(-c4ccc(NC(=O)c5ccc(Cl)cc5)cc4)ccc3n1Cc1ccc(Br)cc1)CC2	3.5%	-13.8%	–
118.6	COc1cc2c(cc1OC)CN(C(=O)c1cc3cc(-c4ccc(NC(=O)c5ccc(Cl)cc5)cc4)ccc3n1Cc1cccc(Br)c1)CC2	7.9%	21.6%	–
146.3	COc1cc2c(cc1OC)CN(C(=O)c1cc3cc(-c4ccc(NC(=O)c5ccccc5)cc4)ccc3[nH]1)CC2	15.5%	11%	–
6011	COc1cc2c(cc1OC)CN(C(=O)c1cc3cc(-c4ccc(NC(=O)c5ccc(Cl)cc5)cc4)ccc3[nH]1)CC2	21.7%	25%	inhibition (INH) [3]: Dose-Dependent Effect; Activity (NCI/ADR-RES [4]): inactive; Activity [5]: Active; Activity (NCI/ADR-RES [6]): inactive; Activity (NCI/ADR-RES [7]): inactive; Activity (NCI/ADR-RES [8]): inactive; Activity (NCI/ADR-RES [9]): inactive; Activity (NCI/ADR-RES [10]): inactive; Activity (NCI/ADR-RES [11]): inactive; Activity (NCI/ADR-RES [12]): inactive; Activity (NCI/ADR-RES [13]): Active; Activity (NCI/ADR-RES [14]): Active; Activity (NCI/ADR-RES [15]): inactive; Activity (NCI/ADR-RES [16]): inactive; Activity [17]: Non-Toxic; Activity [18]: Non-Toxic; Activity [19]: Non-Toxic; Activity [20]: Non-Toxic; Activity [21]: Non-Toxic; Activity [22]: Non-Toxic
